Biological target: T1, human PDE5 (Homo sapiens, UniProt O76074)
T1 construct: from tissue; host or cells: platelets from fresh blood of human donors (lysate, 10,000 g supernatant)
Assay: Inhibition of the type 5 phosphodiesterase (PDE5) activity, modified SPA test with platelet lysate
Assay type: biochemical
Details: PDE5 from human platelet lysate, 0.5 μM cGMP
How it was run: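 Human platelet lysate (10,000 g supernatant) as PDE5 source in SPA with 0.5 μM cGMP plus [3H]cGMP tracer, pH 7.4, 5 mM Mg2+, 1 μM motapizone and 10 nM PDE2 inhibitor; 10–20% conversion. 5 min preincubation, 15 min at 37 °C, stopped with SPA beads/IBMX. IC50 by non-linear regression.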

IC50	Compound	-log IC50 (mol/l)
0.389 nM	O=C(CO)N[C@H]1CC[C@@H](NC(=O)c2c[nH]c3c(-c4c(OCC5CC5)ccc5c4OCO5)ncnc23)CC1 [Example 174]	–
6.31 nM	COCCOc1cc(OC)ccc1-c1ncnc2c(C(=O)N[C@H]3CC[C@@H](NC(=O)C4(O)CC4)CC3)c[nH]c12 [Example 258, cis-4-[4-Methoxy-2-(2-methoxy-ethoxy)-phenyl]-5H-pyrrolo[3,2-d]pyrimidine-7-carboxylic acid {-[(1-hydroxy-cyclopropanecarbonyl)-amino]-cyclohexyl}-amide]	–
11 nM	COCCOc1ccc2c(c1-c1ncnc3c(C(=O)N[C@H]4CC[C@@H](NC(=O)CO)CC4)c[nH]c13)OCO2 [Example 261, cis-4-[5-(2-Methoxy-ethoxy)-benzo[1,3]dioxol-4-yl]-5H-pyrrolo[3,2-d]pyrimidine-7-carboxylic acid [4-(2-hydroxy-acetylamino)-cyclohexyl]-amide]	–
0.646 nM	COc1ccc(OCC2CC2)c(-c2ncnc3c(C(=O)N[C@H]4CC[C@H](NC(=O)C5(O)CC5)CC4)c[nH]c23)c1 [Example 210, trans-4-(2-Cyclopropylmethoxy-5-methoxy-phenyl)-5H-pyrrolo[3,2-d]pyrimidine-7-carboxylic acid {4-[(1-hydroxy-cyclopropanecarbonyl)-amino]-cyclohexyl}-amide]	–
1.02 nM	O=C(NCC1CCN(C(=O)CO)C1)c1c[nH]c2c(-c3c(OCC4CC4)ccc4c3OCO4)ncnc12 (stereo not shown) [Example 191, 4-(5-Cyclopropylmethoxy-benzo[1,3]dioxol-4-yl)-5H-pyrrolo[3,2-d]pyrimidine-7-carboxylic acid [1-(2-hydroxy-acetyl)pyrrolidin-3-ylmethyl]-amide]	–
8.51 nM	COCCOc1cc(OC)ccc1-c1ncnc2c(C(=O)NC3CCN(C(=O)C4(O)CC4)CC3)c[nH]c12 [Example 259, 4-[4-Methoxy-2-(2-methoxy-ethoxy)-phenyl]-5H-pyrrolo[3,2-d]pyrimidine-7-carboxylic acid [1-(1-hydroxy-cyclopropanecarbonyl)-piperidin-4-yl]-amide]	–
4.79 nM	CCOc1ccc2c(c1-c1ncnc3c(C(=O)N[C@@H]4CCN(C(=O)[C@H](C)O)C4)c[nH]c13)OCO2 [Example 250, 4-(5-Ethoxy-benzo[1,3]dioxol-4-yl)-5H-pyrrolo[3,2-d]pyrimidine-7-carboxylic acid [(R)-1-((S)-2-hydroxy-propionyl)-pyrrolidin-3-yl]amide]	–
13.5 nM	COCCOc1cc(OC)ccc1-c1ncnc2c(C(=O)N[C@H]3CC[C@H](NC(=O)CO)CC3)c[nH]c12 [Example 255, trans-4-[4-Methoxy-2-(2-methoxy-ethoxy)-phenyl]-5H-pyrrolo[3,2-d]pyrimidine-7-carboxylic acid [4-(2-hydroxy-acetylamino)-cyclohexyl]-amide]	–
1.2 nM	CCCOc1ccc2c(c1-c1ncnc3c(C(=O)N[C@@H]4CCN(C(=O)[C@H](C)O)C4)c[nH]c13)OCO2 [Example 252, 4-(5-Propoxy-benzo[1,3]dioxol-4-yl)-5H-pyrrolo[3,2-d]pyrimidine-7-carboxylic acid [(R)-1-((S)-2-hydroxy-propionyl)-pyrrolidin-3-yl]amide]	–
1.1 nM	Cc1ccc(OCC2CC2)c(-c2ncnc3c(C(=O)NC4CCN(C(=O)C5(O)CC5)CC4)c[nH]c23)c1 [Example 248, 4-(2-Cyclopropylmethoxy-5-methyl-phenyl)-5H-pyrrolo[3,2-d]pyrimidine-7-carboxylic acid [1-(1-hydroxy-cyclopropanecarbonyl)-piperidin-4-yl]-amide]	–
2.04 nM	O=C(N[C@H]1CCN(C(=O)C2(O)CC2)C1)c1c[nH]c2c(-c3c(OCC4CC4)ccc4c3OCO4)ncnc12 [Example 185, 4-(5-Cyclopropylmethoxy-benzo[1,3]dioxol-4-yl)-5H-pyrrolo[3,2-d]pyrimidine-7-carboxylic acid {(S)-1-[1-(1-hydroxy-cyclopropyl)-methanoyl]-pyrrolidin-3-yl}-amide]	–
17 nM	COCCOc1cc(OC)ccc1-c1ncnc2c(C(=O)N[C@H]3CC[C@@H](NC(=O)COC)CC3)c[nH]c12 [Example 154, cis-4-[4-Methoxy-2-(2-methoxy-ethoxy)-phenyl]-5H-pyrrolo[3,2-d]pyrimidine-7-carboxylic acid [4-(2-methoxy-acetylamino)-cyclohexyl]-amide]	–
0.245 nM	C[C@H](O)C(=O)N1CCC(NC(=O)c2c[nH]c3c(-c4c(OCC5CC5)ccc5c4OCO5)ncnc23)CC1 [Example 176, 4-(5-Cyclopropylmethoxy-benzo[1,3]dioxol-4-yl)-5H-pyrrolo[3,2-d]pyrimidine-7-carboxylic acid [1-((S)-2-hydroxy-propanoyl)-piperidin-4-yl]amide]	–
0.832 nM	COc1ccc(-c2ncnc3c(C(=O)NC4CCN(C(=O)CO)CC4)c[nH]c23)c(OCC2CC2)c1 [Example 205, 4-(2-Cyclopropylmethoxy-4-methoxy-phenyl)-5H-pyrrolo[3,2-d]pyrimidine-7-carboxylic acid [1-(2-hydroxy-ethanoyl)-piperidin-4-yl]amide]	–

Second part, the compound before the results:

Compound	IC50	-log IC50 (mol/l)
CC(=O)N[C@H]1CC[C@H](NC(=O)c2c[nH]c3c(-c4c(OCC5CCC5)ccc5c4OCO5)ncnc23)CC1 [Example 126, trans-4-(5-Cyclobutylmethoxy-benzo[1,3]dioxol-4-yl)-5H-pyrrolo[3,2-d]pyrimidine-7-carboxylic acid (4-acetylamino-cyclohexyl)-amide]	0.468 nM	–
COCC(=O)N1CCC(CNC(=O)c2c[nH]c3c(-c4c(OCC5CC5)ccc5c4OCO5)ncnc23)C1 (stereo not shown) [Example 33, 4-(5-Cyclopropylmethoxy-benzo[1,3]dioxol-4-yl)-5H-pyrrolo[3,2-d]pyrimidine-7-carboxylic acid [1-(2-methoxy-acetyl)-pyrrolidin-3-ylmethyl]-amide]	1.51 nM	–
COc1ccc(OCC2CC2)c(-c2ncnc3c(C(=O)NC4CCN(C(C)=O)CC4)c[nH]c23)c1 [Example 71, 4-(2-Cyclopropylmethoxy-5-methoxy-phenyl)-5H-pyrrolo[3,2-d]pyrimidine-7-carboxylic acid (1-acetyl-piperidin-4-yl)-amide]	1.35 nM	–
trans-4-(2-Cyclopropylmethoxy-4-fluoro-phenyl)-5H-pyrrolo[3,2-d]pyrimidine-7-carboxylic acid [4-((S)-2-hydroxy-propionylamino)-cyclohexyl]-amide [Example 223]	–	8.46
CCOC(=O)N[C@H]1CC[C@@H](NC(=O)c2c[nH]c3c(-c4c(OCC5CC5)ccc5c4OCO5)ncnc23)CC1 [Example 10, cis-[4-({1-[4-(5-Cyclopropylmethoxy-benzo[1,3]dioxol-4-yl)-5H-pyrrolo[3,2-d]pyrimidin-7-yl]-methanoyl}-amino)-cyclohexyl]-carbamic acid ethyl ester]	0.2 nM	–
CCC(=O)N1CCC(NC(=O)c2c[nH]c3c(-c4cc(F)ccc4OCC4CC4)ncnc23)CC1 [Example 85, 4-(2-Cyclopropylmethoxy-5-fluoro-phenyl)-5H-pyrrolo[3,2-d]pyrimidine-7-carboxylic acid (1-propionyl-piperidin-4-yl)-amide]	1.58 nM	–
COc1cc(OCC2CC2)c(-c2ncnc3c(C(=O)N[C@H]4CCCN(C(C)=O)C4)c[nH]c23)cc1F [Example 116, 4-(2-Cyclopropylmethoxy-5-fluoro-4-methoxy-phenyl)-5H-pyrrolo[3,2-d]pyrimidine-7-carboxylic acid ((S)-1-acetyl-piperidin-3-yl)-amide]	3.09 nM	–
COCCOc1cc(OC)ccc1-c1ncnc2c(C(=O)N[C@H]3CC[C@@H](NC(=O)C4CC4)CC3)c[nH]c12 [Example 153, cis-4-[4-Methoxy-2-(2-methoxy-ethoxy)-phenyl]-5H-pyrrolo[3,2-d]pyrimidine-7-carboxylic acid [4-(cyclopropanecarbonyl-amino)cyclohexyl]-amide]	6.17 nM	–
4-(2-Cyclopropylmethoxy-4-fluoro-5-methoxy-phenyl)-5H-pyrrolo[3,2-d]pyrimidine-7-carboxylic acid ((R)-1-acetyl-pyrrolidin-3-yl)-amide [Example 103]	–	9.33
COCC(=O)N1CC[C@@H](NC(=O)c2c[nH]c3c(-c4cc(OC)c(F)cc4OCC4CC4)ncnc23)C1 [Example 105, 4-(2-Cyclopropylmethoxy-4-fluoro-5-methoxy-phenyl)-5H-pyrrolo[3,2-d]pyrimidine-7-carboxylic acid [(R)-1-(2-methoxy-acetyl)-pyrrolidin-3-yl]amide]	0.372 nM	–
COc1cc(OCC2CC2)c(-c2ncnc3c(C(=O)N[C@@H]4CCN(C(C)=O)C4)c[nH]c23)cc1F [Example 117, 4-(2-Cyclopropylmethoxy-5-fluoro-4-methoxy-phenyl)-5H-pyrrolo[3,2-d]pyrimidine-7-carboxylic acid ((R)-1-acetyl-pyrrolidin-3-yl)-amide]	1.1 nM	–
COCC(=O)N1CCC[C@@H](NC(=O)c2c[nH]c3c(-c4c(OCC5CC5)ccc5c4OCO5)ncnc23)C1 [Example 48, 4-(5-Cyclopropylmethoxy-benzo[1,3]dioxol-4-yl)-5H-pyrrolo[3,2-d]pyrimidine-7-carboxylic acid [(R)-1-(2-methoxy-ethanoyl)-piperidin-3-yl]amide]	0.427 nM	–
COc1ccc(OCC2CC2)c(-c2ncnc3c(C(=O)N[C@H]4CC[C@@H](NC(C)=O)CC4)c[nH]c23)c1 [Example 67, cis-4-(2-Cyclopropylmethoxy-5-methoxy-phenyl)-5H-pyrrolo[3,2-d]pyrimidine-7-carboxylic acid (4-acetylamino-cyclohexyl)-amide]	1.38 nM	–
COc1ccc(OCC2CC2)c(-c2ncnc3c(C(=O)N[C@H]4CC[C@@H](NC(=O)C5CC5)CC4)c[nH]c23)c1 [Example 68, cis-4-(2-Cyclopropylmethoxy-5-methoxy-phenyl)-5H-pyrrolo[3,2-d]pyrimidine-7-carboxylic acid [4-(cyclopropanecarbonyl-amino)cyclohexyl]-amide]	0.912 nM	–

From US8445501B2, “Substituted 7-carboxamido-pyrrolo[3,2-d]pyrimidines” (Takeda GmbH, priority 2008, dated 2013)
